Laboratory results from patent US12421227B2, “Ribociclib salts and solid state forms thereof” (ASSIA CHEMICAL INDUSTRIES LTD., priority 2017, dated 2025).

Legend:
[1] = cited from earlier work
[2] = exposure to 90% RH; cited from earlier work

| Substance | sorption/desorption behavior, hydrate formation ([1]; 90% RH condition in each cycle) | moisture absorbed ([1]; at 90% RH in each cycle) | hygroscopic behavior ([1]; at high humidity conditions) | physical form on exposure to humidity [2] | hygroscopicity |
| --- | --- | --- | --- | --- | --- |
| Ribociclib succinate | formation of hydrate form is taking place | up to 2% | slight hygroscopic behavior | change in physical form | – |
| Ribociclib succinate [Form B] | – | – | – | – | negligible hygroscopicity |
